Assay results reported in patent US20070253896A1, “7,9-Dihydro-Purin-8-One and Related Analogs as HSP90-Inhibitors” (CONFORMA THERAPEUTICS CORPORATION, priority 2006, published 2007).

How the values were obtained:
HER2/Neu protein = assay: HER2 Degradation Assay; format: cell-based; details: Homo sapiens; MCF7 breast carcinoma cells, 16 h incubation, flow cytometry; concentration at which there was 50% degradation of the HER2/Neu protein
Experimental: MCF7 breast carcinoma cells (ATCC) were grown in Dulbecco's modified Eagle's medium (DMEM) containing 10% fetal bovine serum (FBS) and 10 mM HEPES, and plated in 24 well plates (50% confluent). Twenty-four hrs later (cells are 65-70% confluent), test compounds were added and incubated overnight for 16 h. […] The wells were washed with 1 mL phosphate buffered saline (PBS), and 200 μL trypsin was added to each well. After trypsinization was complete, 50 μL of FBS was added to each well. Then 200 μL cells was transferred to 96 well plates. The cells were pipetted up and down to obtain a single cell suspension. The plates were centrifuged at 2,500 rpm for 1 min using a Sorvall Legend RT™0 tabletop centrifuge (Kendro Laboratory Products, Asheville, N.C.). The cells were then washed once in PBS containing 0.2% BSA and 0.2% sodium azide (BA buffer). Phycoerythrin (PE) conjugated anti HER2/Neu antibody (Becton Dickinson, #340552), or PE conjugated anti-keyhole limpet hemocyanin [KLH] (Becton Dickinson; #340761) control antibody was added at a dilution of 1:20 and 1:40 respectively (final concentration was 1 μg/mL) and the cells were pipetted up and down to form a single cell suspension, and incubated for 15 mins. The cells were washed twice with 200 μL BA buffer, and resuspended in 200 μL BA buffer, and transferred to FACSCAN tubes with an additional 250 µL BA buffer. Samples were analyzed using a FACS Calibur™ flow cytometer (Becton Dickinson, San Jose, Calif.) equipped with Argon-ion laser that emits 15 mW of 488 nm light for excitation of the PE fluorochrome. 10,000 events were collected per sample. A fluorescence histogram was generated and the mean fluorescence intensity (MFI) of each sample was determined using Cellquest software. The background was defined as the MFI generated from cells incubated with control IgG-PE, and was subtracted from each sample stained with the HER2/Neu antibody. Cells incubated with DMSO were used as untreated controls since the compounds were resuspended in DMSO. Percent degradation of HER2 was calculated as follows: % HER2 degraded=[(MFI untreated cells−MF1 treated cells)/MFI untreated cell]×100
IC50 is defined as the concentration at which there was 50% degradation of the HER2/Neu protein.

[1] = tested on: MCF7 breast carcinoma cells; assay: MTS Assay; format: cell-based; details: Homo sapiens, concentration giving 50% reduction in viable cell number
Experimental: MTS assays measure the cytotoxicity of geldanamycin derivatives. MTS (3-(4,5-dimethylthiazol-2-yl)-5-(3-carboxymethoxyphenyl)-2-(4-sulfophenyl)-2H-tetrazolium) is a tetrazolium dye that is converted to a formazan product by dehydrogenase enzymes of metabolically active cells (Corey, A. et al. “Use of an aqueous soluble tetrazolium/formazan assay for cell growth assays in culture,” Cancer Commun. 1991, 3, 207-212). Cells were seeded in 96 well plates at 2000 cells/well and allowed to adhere overnight in Dulbecco's modified Eagle's medium supplemented with 10% fetal bovine serum. The final culture volume was 100 μl. Viable cell number was determined by using the Celltiter 96 AQueous Non-radioactive Cell Proliferation Assay (Promega, Madison Wis.). The MTS/PMS (phenazine methosulfate) solution was mixed at a ratio of 20:1, and 20 μL was added per well to 100 μl of culture medium. After 2-4 hours, the formation of the formazan product was measured at 490 nm absorbance using a multiwell plate spectrophotometer. Background was determined by measuring the Abs 490 nm of cell culture medium and MTS-PMS in the absence of cells and was subtracted from all values. Percent viable cells was calculated as follows: % viable cells=(Abs at 490 nm treated cells/Abs at 490 nm untreated cells)×100
The effect of selected compounds of the invention on MCF7 breast carcinoma cells according to the MTS assay is summarized in Table 2. IC50 was defined as the concentration of the compound which gave rise to 50% reduction in viable cell number.

| Compound | IC50 (HER2/Neu protein) | IC50 [1] |
| --- | --- | --- |
| Cc1cnc(Cn2c(=O)[nH]c3c(Cl)nc(N)nc32)c(C)c1I [Example 6, 2-amino-6-chloro-9-((4-iodo-3,5-dimethylpyridin-2-yl)methyl)-7H-purin-8(9H)-one] | 70 nM | 300 nM |
| C=CCCCn1c(=O)n(Cc2ncc(C)c(OC)c2C)c2nc(N)nc(Cl)c21 [Example 35, 2-Amino-6-chloro-9-(4-methoxy-3,5-dimethyl-pyridin-2-ylmethyl)-7-pent-4-enyl-7,9-dihydro-purin-8-one] | 160 nM | 1000 nM |
| COc1c(C)cnc(Cn2c(=O)n(CCC(F)=C(F)F)c3c(Cl)nc(N)nc32)c1C [Example 71, 2-Amino-6-chloro-9-(4-methoxy-3,5-dimethyl-pyridin-2-ylmethyl)-7-(3,4,4-trifluoro-but-3-enyl)-7,9-dihydro-purin-8-one] | 160 nM | > 1000 nM |
| COC(=O)c1ccc(Cn2c(=O)n(Cc3ncc(C)c(OC)c3C)c3nc(N)nc(Cl)c32)cc1 [Example 80, 4-[2-Amino-6-chloro-9-(4-methoxy-3,5-dimethyl-pyridin-2-ylmethyl)-8-oxo-8,9-dihydro-purin-7-ylmethyl]-benzoic acid methyl ester] | 160 nM | > 1000 nM |
| COc1c(C)cnc(Cn2c(=O)n(Cc3ccccn3)c3c(Cl)nc(N)nc32)c1C [Example 82, 2-Amino-6-chloro-9-(4-methoxy-3,5-dimethyl-pyridin-2-ylmethyl)-7-pyridin-2-ylmethyl-7,9-dihydro-purin-8-one] | 170 nM | 1000 nM |
| COc1c(C)cnc(Cn2c(=O)n(CCn3cccc3)c3c(Cl)nc(N)nc32)c1C [Example 89, 2-Amino-6-chloro-9-(4-methoxy-3,5-dimethyl-pyridin-2-ylmethyl)-7-(2-pyrrol-1-yl-ethyl)-7,9-dihydro-purin-8-one] | 120 nM | 1000 nM |
| Cc1cnc(Cn2c(=O)n(CCN(C)C(C)C)c3c(Cl)nc(N)nc32)c(C)c1I [Example 108, 2-amino-6-chloro-9-((4-iodo-3,5-dimethylpyridin-2-yl)methyl)-7-(2-(isopropyl(methyl)amino)ethyl)-7H-purin-8(9H)-one] | 140 nM | 700 nM |

Continued by falling IC50 (HER2/Neu protein), values first:

| IC50 (HER2/Neu protein) | IC50 [1] | Compound |
| --- | --- | --- |
| 140 nM | > 1000 nM | COc1c(C)cnc(Cn2c(=O)n(CCC=C(C)C)c3c(Cl)nc(N)nc32)c1C [Example 20, 2-Amino-6-chloro-9-(4-methoxy-3,5-dimethyl-pyridin-2-ylmethyl)-7-(4-methyl-pent-3-enyl)-7,9-dihydro-purin-8-one] |
| 130 nM | > 1000 nM | CCCN(CCC)CCn1c(=O)n(Cc2ncc(C)c(I)c2C)c2nc(N)nc(Cl)c21 [Example 107, 2-amino-6-chloro-7-(2-(dipropylamino)ethyl)-9-((4-iodo-3,5-dimethylpyridin-2-yl)methyl)-7H-purin-8(9H)-one] |
| 120 nM | > 1000 nM | Cc1cnc(Cn2c(=O)n(Cc3ccccn3)c3c(Cl)nc(N)nc32)c(C)c1I [Example 99, 2-amino-6-chloro-9-((4-iodo-3,5-dimethylpyridin-2-yl)methyl)-7-(pyridin-2-ylmethyl)-7H-purin-8(9H)-one] |
| 90 nM | 300 nM | CC(=O)n1c(=O)n(Cc2ncc(C)c(I)c2C)c2nc(N)nc(Cl)c21 [Example 105, 7-acetyl-2-amino-6-chloro-9-((4-iodo-3,5-dimethylpyridin-2-yl)methyl)-7H-purin-8(9H)-one] |
| 42 nM | 300 nM | Cc1cnc(Cn2c(=O)n(CCn3cccc3)c3c(Cl)nc(N)nc32)c(C)c1I [Example 96, 7-(2-(1H-pyrrol-1-yl)ethyl)-2-amino-6-chloro-9-((4-iodo-3,5-dimethylpyridin-2-yl)methyl)-7H-purin-8(9H)-one] |
| 30 nM | 600 nM | Cc1cnc(Cn2c(=O)n(CCN(C(C)C)C(C)C)c3c(Cl)nc(N)nc32)c(C)c1I [Example 98, 2-amino-6-chloro-7-(2-(diisopropylamino)ethyl)-9-((4-iodo-3,5-dimethylpyridin-2-yl)methyl)-7H-purin-8(9H)-one] |
